From patent US11453674B2, “Heterocyclic compound, preparation method and use thereof in medicine” (SUZHOU SINOVENT PHARMACEUTICALS CO., LTD., priority 2019, dated 2022) come the findings set out here.

The target of series [1] is T1, hURAT1 (Homo sapiens, UniProt Q96S37).
T1 construct: expressed in transfected cells
T1 sequence (Q96S37 1-553): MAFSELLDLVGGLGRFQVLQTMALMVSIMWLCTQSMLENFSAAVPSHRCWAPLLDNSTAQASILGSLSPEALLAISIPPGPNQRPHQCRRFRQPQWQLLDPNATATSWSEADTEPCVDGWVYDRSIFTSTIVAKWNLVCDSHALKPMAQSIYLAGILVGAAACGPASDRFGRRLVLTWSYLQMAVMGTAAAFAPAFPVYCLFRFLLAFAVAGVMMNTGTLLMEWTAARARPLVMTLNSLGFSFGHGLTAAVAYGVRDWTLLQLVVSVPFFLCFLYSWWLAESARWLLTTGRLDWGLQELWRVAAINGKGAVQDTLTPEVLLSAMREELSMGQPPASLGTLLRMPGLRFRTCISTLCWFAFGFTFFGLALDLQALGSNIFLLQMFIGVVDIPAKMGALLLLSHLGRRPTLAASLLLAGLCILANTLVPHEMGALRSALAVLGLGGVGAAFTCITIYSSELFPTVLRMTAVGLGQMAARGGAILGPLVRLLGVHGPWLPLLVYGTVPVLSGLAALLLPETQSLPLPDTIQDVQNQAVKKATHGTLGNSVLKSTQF
Description: Inhibition of 14C-uric acid uptake by hURAT1 in HEK293-transfected cells. The format is cell-based. The following applies: HEK-293T cells stably expressing hURAT1, 14C-uric acid uptake, 5 min at 37° C. Here is the method:
1. Cell Culture and Inoculation
2) When the cells covered 80% of the culture medium, the culture medium was removed. The cells were washed with PBS once, followed by digestion with pancreatin-EDTA. After detachment, the cells were added with a culture medium, exfoliated by pipetting, and centrifuged for harvesting. The harvested cells were added with a culture medium and mixed well to give a cell suspension.
3) The cell density was adjusted to 3×10^5 cells/mL, transferred into a white-wall, clear-bottom, 96-well cell culture plate with 100 μL/well, and incubated for 12-24 h.
1) A 20 mM stock solution of the compound was prepared with DMSO. Then the stock solution was diluted to a starting concentration of 2 mM with DMSO.
2) The solution was serially 4-fold diluted with DMSO from […] to the 10th concentration on a 96-well plate serving as the 100× plate, and respective quality controls were prepared.
3) The solutions in corresponding wells were 10-fold diluted with Cl-free HBSS buffer on another 96-well plate serving as the 10× plate.
4) Buffer containing 0.1 μCi/mL ^14C-uric acid, at 45 μL/well, and a 10× diluted compound, at 5 μL/well, were added to a third 96-well plate serving as the 1× plate for later use. The concentration of DMSO was 1%.
3. Uptake of ^14C-Uric Acid in Cells Stably Expressing hURAT1
1) The uptake assay was performed after the cultivated cells in 96-well plates adhered.
2) The cells were washed once with pre-heated buffer at 200 μL/well.
3) After the wells were dried, corresponding compounds (50 μL/well) and 0.1 μCi/mL ^14C-uric acid were immediately added.
4) The plate with the compound was incubated in a 37° C. incubator for 5 min.
5) 150 μL of ice-cold buffer was added to each well to terminate the uptake. Each well was washed three times with buffer. The cells were carefully washed to avoid detachment.
6) 50 μL of lysis buffer was added to each well, prior to shaking at 900 rpm on an oscillator for 5 min.
7) 150 μL of scintillation solution (Microint 40) was added to each well before shaking at 900 rpm for 5 min.
8) Finally, the microwell plate was transferred to a MicroBeta Trilux (PerkinElmer Co. Ltd.) for detection.
The data were analyzed and the IC50 of the quality controls and all test compounds on the plates were calculated using XL-fit software.

The target of series [2] is T2, CYP2C9 (Homo sapiens, UniProt P11712).
T2 construct: from tissue
Description: Inhibitory effect on CYP2C9 enzyme in microsomes (diclofenac probe). The following applies: microsomes 0.25 mg/mL, diclofenac 10 μM; IC50 higher than that of benzbromarone. The format is in vitro ADME. Here is the method: Example 27: Evaluating the Inhibitory Effects of Compounds on CYP2C9 Enzyme
The assay was performed in 100 mM phosphate buffer in a total volume of 200 μL. The microsome concentration in the reaction system was 0.25 mg/mL, the concentrations of the test compounds were 10, 3.33, 1.11, 0.37, 0.12, 0.04 and 0 μM, the CYP2C9-specific probe substrate and the concentration were diclofenac (10 μM). The mixture was pre-incubated in a 37° C. thermostatic oscillator for 5 min, and a NADPH-generating system (containing 1.3 mM NADP^+, 3.3 mM D(+)-glucopyranose-6-phosphate, […] glucose-6-phosphate dehydrogenase, 3.3 mM MgCl2) was added to start the reaction. After incubation for 10 min, the reaction was terminated by adding an equal volume of acetonitrile. The mixture was vortexed and centrifuged at 13,000 rpm. The resulting supernatant was loaded to LC-MS-MS to determine the content of metabolites. The metabolite of diclofenac specifically obtained by CYP2C9 metabolism pathway is 4-hydroxydiclofenac. Sulfaphenazole was adopted as a specific CYP2C9 inhibitor. In the experiment, analysis was performed by GraphPad Primsm 5.0 to calculate the half maximal inhibitory concentration (IC50 value).

A short description of series [3]: Pharmacokinetics in male SD rats (i.v. and p.o.). The class given is in vivo. The following applies: Sprague-Dawley (SD), rat, plasma, po, p.o. 10 mg/kg vs i.v. 1 mg/kg. The method, then:
Example 29: Pharmacokinetics
Methodology for pharmacokinetics of compounds in rats:
1. Male SD rats were acclimatized in the animal room for 7 days after arrival.
2. Six SD rats were randomized into 2 groups, with 3 animals in each group. One group was administered by oral gavage (p.o.), and the other group was treated via tail vein injection (i.v.). Rats in the p.o. group were deprived of food overnight before administration.
3. After administration, about 200 μL of blood was collected from the orbital venous plexus at various time points.
4. The collected blood samples were centrifuged at 12000 rpm for 5 min at 4° C., and then the upper plasma samples were collected and preserved in a refrigerator at −20° C.
5. The procedures were summarized as follows:
6. LC-MS/MS (UPLC-MS/MS: liquid chromatography Waters Acquity UPLC (USA) and mass spectrometry 5500 Q Trap (Applied Biosystem/MDS SCIEX) or HPLC-MS\MS: liquid chromatography Agilent 1200 series (USA) and mass spectrometry API 4000 (Applied Biosystem/MDS SCIEX)) were used to determine the concentration of the compound in the plasma.
The pharmacokinetic parameters were calculated using the pharmacokinetic software WinNonlin [Model: Phoenix™ WinNonlin® 6.1; Manufacturer: Pharsight Corporation]. [Phoenix 1.1 User's Guide: p 251-p 300]

T2 sequence (P11712 whole entry): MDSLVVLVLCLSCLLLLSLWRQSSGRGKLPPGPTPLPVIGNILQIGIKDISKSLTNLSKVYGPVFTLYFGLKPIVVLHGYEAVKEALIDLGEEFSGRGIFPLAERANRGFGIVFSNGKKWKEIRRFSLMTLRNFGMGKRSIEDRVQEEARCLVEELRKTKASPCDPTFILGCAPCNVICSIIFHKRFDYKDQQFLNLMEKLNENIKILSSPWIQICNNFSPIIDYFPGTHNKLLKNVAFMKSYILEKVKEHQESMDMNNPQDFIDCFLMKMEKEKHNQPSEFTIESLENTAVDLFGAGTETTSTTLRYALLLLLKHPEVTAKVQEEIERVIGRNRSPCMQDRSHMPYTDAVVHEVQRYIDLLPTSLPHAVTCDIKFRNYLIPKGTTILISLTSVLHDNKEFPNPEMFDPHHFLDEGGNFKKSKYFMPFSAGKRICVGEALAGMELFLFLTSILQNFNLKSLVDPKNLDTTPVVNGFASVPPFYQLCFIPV

One may read the IC50 as the point on the concentration scale where inhibition reaches its midpoint. A high value points to weaker potency. As for `CCc1nc2ncc(Br)cn2c1C(=O)c1cc(Br)c(O)c(Br)c1` [Example 3, (6-bromo-2-ethylimidazo[1,2-a]pyrimidin-3-yl)(3,5-dibromo-4-hydroxyphenyl)methanone], the IC50 in series [1] was under 50 nM.
Broadly, the bioavailability is the share of a dose that reaches the circulation, judged against a reference dose that is usually intravenous. Higher therefore signals much systemic uptake. On to `CCc1nc2ncc(F)cn2c1C(=O)c1cc(Br)c(O)c(Br)c1` [Example 4, (3,5-dibromo-4-hydroxyphenyl)(2-ethyl-6-fluoroimidazo[1,2-a]pyrimidin-3-yl)methanone], for which the “inhibitory effect on CYP enzymes (CYP2C9)” value (shortened to “inhibitory effect”) in series [2] was “very low or no inhibitory effect”. In addition, the bioavailability in series [3] is over 30%. For the same compound, the IC50 in series [1] is under 50 nM.
The like results for `CCc1nc2ncc(C(F)(F)F)cn2c1C(=O)c1cc(Br)c(O)c(Br)c1` [Example 5, (3,5-dibromo-4-hydroxyphenyl)(2-ethyl-6-(trifluoromethyl)imidazo[1,2-a]pyrimidin-3-yl)methanone] were, in that order, “very low or no inhibitory effect”, over 30% and under 50 nM.
The compound `CCc1nc2ncc(Cl)cn2c1C(=O)c1cc(Br)c(O)c(Br)c1` [Example 6, (6-chloro-2-ethylimidazo[1,2-a]pyrimidin-3-yl)(3,5-dibromo-4-hydroxyphenyl)methanone] registered an IC50 in series [1] of under 50 nM.
With `CCc1nc2cc(C(F)(F)F)ncn2c1C(=O)c1cc(Br)c(O)c(Br)c1` [Example 7, (3,5-dibromo-4-hydroxyphenyl)(2-ethyl-7-(trifluoromethyl)imidazo[1,2-c]pyrimidin-3-yl)methanone], the IC50 in series [1] fell in the range of 50 to 200 nM.
Same read-out and setting: in the case of `CCn1nc2ccc(F)cc2c1C(=O)c1cc(Br)c(O)c(Br)c1` [Example 9, (3,5-dibromo-4-hydroxyphenyl)(2-ethyl-5-fluoro-2H-indazol-3-yl) methanone] it was 50 to 200 nM.
In the case of `CCc1nc2ncc(F)cn2c1C(=O)c1cc(Br)c(O)c(C#N)c1` [Example 14, 3-bromo-5-(2-ethyl-6-fluoroimidazo[1,2-a]pyrimidine-3-carbonyl)-2-hydroxybenzonitrile], the “inhibitory effect” value in series [2] is given as “very low or no inhibitory effect”. This compound also returned a bioavailability in series [3] of over 30%. In addition, the IC50 in series [1] was 50 to 200 nM.
For the compound `CCn1nc2ccncc2c1C(=O)c1cc(Br)c(O)c(Br)c1` [Example 16, (3,5-dibromo-4-hydroxyphenyl)(2-ethyl-2H-pyrazolo[4,3-c]pyridin-3-yl)methanone], the IC50 in series [1] is under 50 nM.
Still for that read-out and setting: as for `CCc1nc2ncc(F)cn2c1C(=O)c1cc(Br)c(O)c(C(F)(F)F)c1` [Example 18, (3-bromo-4-hydroxy-5-(trifluoromethyl)phenyl)(2-ethyl-6-fluoroimidazo[1,2-a]pyrimidin-3-yl)methanone], the figure is under 50 nM.
With `CCc1nc2ncccn2c1C(=O)c1cc(Br)c(O)c(Br)c1` [Example 20, 2,6-dibromo-4-([2-ethylimidazo[1,2-a]pyrimidin-3-yl]carbonyl) phenol], in series [2], the “inhibitory effect” value is listed as “very low or no inhibitory effect”. The compound also had a bioavailability in series [3] of over 30%. The compound also came in with an IC50 in series [1] of under 50 nM.
The like results for `CCc1nc2cc(Cl)ncn2c1C(=O)c1cc(Br)c(O)c(Br)c1` [Example 21, (7-chloro-2-ethylimidazo[1,2-f]pyrimidin-3-yl)(3,5-dibromo-4-hydroxyphenyl)methanone] were, in that order, “very low or no inhibitory effect”, over 30% and under 50 nM.
On to `CCc1nc2ncccn2c1C(=O)c1cc(Br)c(O)c(C#N)c1` [Example 22, 3-bromo-5-(2-ethylimidazo[1,2-a]pyrimidine-3-carbonyl)-2-hydroxybenzonitrile], for which the IC50 in series [1] fell in the range of 200 to 500 nM.
The same measure, in the same setting: in the case of `CCc1nc2ncccn2c1C(=O)c1cc(Br)c(O)c(C(F)(F)F)c1` [Example 23, (3-bromo-4-hydroxy-5-(trifluoromethyl)phenyl)(2-ethylimidazo[1,2-a]pyrimidin-3-yl)methanone] it was 50 to 200 nM.
